Measurements reported in patent US20080311185A1, “Deregulated Genes and/or Processes in Inflammatory Arthritis” (priority 2005, published 2008).
Starred links: 1 amine or outer side, 2 acyl side, 3 side chain; linkers in the order of their positions; H or OH if unused. Positions of bridges follow the written chain, without caps; N, C: chain ends. Non-standard residues stand in square brackets, D forms with d. Residues, ends and D or L forms follow the SMILES beside them. Trp(2-yl) = O=C([C@H](Cc1c([*:3])[nH]c2ccccc12)N[*:1])[*:2]; Leu(4R-OH,5-OH) = C[C@](O)(CO)C[C@H](N)C(=O)O; cisHyp = O=C(O)[C@@H]1C[C@H](O)CN1

What was measured:
HeLa cells = conditions: Kulms et al, 2002; cited from earlier work
[1] = tested on: Tg197 synovial fibroblasts; assay: Proliferation assay of Tg197 synovial fibroblasts after drug treatment; type: cell-based, mouse; conditions: FIG. 9
Description: FIG. 7. […] Mean averages of triplicates with mean background (adhesion to BSA) values subtracted. Representative experiment out of three (t-test; P<0.05). (C) DNA synthesis/proliferation assay in the presence or absence of 10% FBS, 48 h after treatment. Values represent [3H]Thymidine incorporation (×10^3). Mean average of triplicates (t test; P<0.05). (D) Assay of wound-healing treated with Mytomycin C for 2 h. Pictures were taken at Oh and 24 h after the wound (Oh not shown). (E) TNF cytotoxicity assay with cyclohexamide. After 24 h survival was determined using the crystal violet assay. (F) Apoptosis assay using 30-300 μM etoposide. (G) Apoptosis assay using 0.01-1 μM staurosporine.
(§1) Disruption of actin cytoskeleton was induced with 4 μg/ml of Latrunculin A (Sigma) for 2 h at 37° C. as previously described (Spector et al, 1989). As control of TNFα involvement in actin-cytoskeleton organisation 1 μg/ml of anti-TNF (Infliximab) was added on the cells for the same period of time.

[2] = tested on: Tg197 synovial fibroblasts; assay: Migration assay of Tg197 synovial fibroblasts after drug treatment; type: cell-based, mouse; conditions: drug treatment 2 h at 37° C., compare to Wt, FIG. 8
Description: (§2) FIG. 8. Adhesion/Migration assays showing the effect of Lat-A on Tg197 actin-cytoskeleton properties.
as §1

[3] = tested on: Tg197 synovial fibroblasts; assay: Adhesion assay of Tg197 synovial fibroblasts after drug treatment; type: cell-based, mouse; conditions: drug treatment 2 h at 37° C., FIG. 8
Description: as §2
Adhesion assays were performed on Cytometrix adhesion strips (Chemicon) coated with human fibronectin, vitronectin, laminin and collagen I, according to the manufacturer instructions.
as §1

[4] = tested on: Tg197 synovial fibroblasts; assay: Apoptosis assay using staurosporine as inducer of cell death; type: cell-based, mouse; conditions: FIG. 10
Description: Confluent mouse synovial fibroblasts were washed twice with phosphate-buffered saline (PBS) and placed in DMEM without serum for 24 h. The following day 1.5×10^4 cells were plated into each well of a 96-well flat-bottom plate (Costar, Corning Inc.) in 100 μl of media plus serum. After 24 h, cells were treated with 12.5-100 ng/ml TNFα plus 0.5-3 μg/ml cyclohexamide (CHX), 30-300 μM Etoposide and 0.01-1 μM Staurosporine, for 24 h at 37° C. overnight. Cell survival was determined using the crystal violet assay. The absorbance at 570 nm was determined on a microplate reader (SPECTRAmax PLUS^384, Molecular Devices, Sunnyvale, Calif., USA), as previously described (Aidinis et al, 2003). Results are expressed as the means±S.E. of one representative experiment performed in triplicate. Statistical analysis was performed using Student's t test, with a level of significance set at p<0.05.
as §1

Row | Molecule | apoptosis in HeLa cells (HeLa cells) | proliferation levels of TgSFs [1] | migration of TgSF's [2] | adhesion of TgSF's [3] | resistance to apoptosis [4]
1 | C=C1[C@@H](C)[C@H]2[C@H](Cc3ccccc3)NC(=O)[C@]23[C@H](OC(C)=O)/C=C/[C@@](C)(O)C(=O)[C@@H](C)C/C=C/[C@H]3[C@@H]1O [Cytochalasin D] | enhances apoptosis | – | – | – | –
2 | C/C1=C/C(=O)O[C@@H]2C[C@@H](CC[C@H](C)/C=C\C=C\CC1)O[C@@](O)([C@@H]1CSC(=O)N1)C2 [Lat-A, Latrunculin A] | – | decline lower even than the levels of WtSFs | migration seems to be increased | decreased adhesion | decreased resistance to apoptosis at the levels of the Wt SFs
3 | C[C@@H]1NC(=O)[C@H](C[C@@](C)(O)CO)NC(=O)[C@@H]2Cc3c([nH]c4ccccc34)SC[C@H](NC(=O)[C@@H]([C@H](C)O)NC1=O)C(=O)N1C[C@@H](O)C[C@H]1C(=O)N[C@@H](C)C(=O)N2 [phalloidin] (cyclo(A[dT]C[cisHyp]A[Trp(2-yl)][Leu(4R-OH,5-OH)]); thioether 3-6) | does not affect apoptosis | – | – | – | –
4 | TNFα | – | do not have an effect | – | – | –
5 | anti-TNF: anti-TNF (Infliximab), control of TNFα involvement in actin-cytoskeleton organisation | – | – | do not show altered adhesion/migration properties | do not show altered adhesion/migration properties | –
